Data taken from the supplement of paper PMC10307832.

Assays:
Assay in all cases: relative viability (nuclei count vs DMSO), 5 days (fraction); higher = more cells survive
AZD1208 + Vorinostat = compound: N[C@@H]1CCCN(c2c(/C=C3\SC(=O)NC3=O)cccc2-c2ccccc2)C1 [AZD1208] + O=C(CCCCCCC(=O)Nc1ccccc1)NO [Vorinostat] (partner 1 µM)
In short: (§1)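 Lung cancer cell lines were pin-tool dosed in 1536-well plates on the day after seeding, with either a lone drug or a fixed anchor-drug dose plus five library-drug doses (not always all listed) in √10 steps. Nuclei were counted on 4× images after 5 days. Relative viability is the ratio of treated-well to vehicle-well nuclei counts, with each value a median of duplicate plates.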

XMD14-99 + Linsitinib = compound: CN1CCN(CC1)C2=CC(=C(C=C2)NC3=NC(=C(S3)C(=O)C4=C(C=CC=C4Cl)Cl)N)OC [XMD14-99] + C[C@]1(O)C[C@@H](c2nc(-c3ccc4ccc(-c5ccccc5)nc4c3)c3c(N)nccn32)C1 [Linsitinib] (partner 1 µM)
In short: as §1

XMD14-99 + Lapatinib = compound: CN1CCN(CC1)C2=CC(=C(C=C2)NC3=NC(=C(S3)C(=O)C4=C(C=CC=C4Cl)Cl)N)OC [XMD14-99] + CS(=O)(=O)CCNCc1ccc(-c2ccc3ncnc(Nc4ccc(OCc5cccc(F)c5)c(Cl)c4)c3c2)o1 [Lapatinib] (partner 2 µM)
In short: as §1

AZD1208 + Trametinib = compound: N[C@@H]1CCCN(c2c(/C=C3\SC(=O)NC3=O)cccc2-c2ccccc2)C1 [AZD1208] + CC(=O)Nc1cccc(-n2c(=O)n(C3CC3)c(=O)c3c(Nc4ccc(I)cc4F)n(C)c(=O)c(C)c32)c1 [Trametinib] (partner 0.02 µM)
In short: as §1

UMC-11
relative viability (AZD1208 + Vorinostat; first compound 0.08 µM): 0.362
relative viability (AZD1208 + Vorinostat; first compound 0.253 µM): 0.354
relative viability (AZD1208 + Vorinostat; first compound 0.8 µM): 0.3
relative viability (AZD1208 + Vorinostat; first compound 2.53 µM): 0.294
relative viability (AZD1208 + Vorinostat; first compound 8 µM): 0.211
relative viability (XMD14-99 + Linsitinib; first compound 0.08 µM): 1.03
relative viability (XMD14-99 + Linsitinib; first compound 0.8 µM): 1.03
relative viability (XMD14-99 + Linsitinib; first compound 2.53 µM): 1.03
relative viability (XMD14-99 + Linsitinib; first compound 8 µM): 0.858
relative viability (XMD14-99 + Lapatinib; first compound 0.08 µM): 1.13
relative viability (XMD14-99 + Lapatinib; first compound 0.8 µM): 0.969
relative viability (XMD14-99 + Lapatinib; first compound 2.53 µM): 0.974
relative viability (XMD14-99 + Lapatinib; first compound 8 µM): 0.744
relative viability (AZD1208 + Trametinib; first compound 0.08 µM): 0.498
relative viability (AZD1208 + Trametinib; first compound 0.253 µM): 0.623
relative viability (AZD1208 + Trametinib; first compound 0.8 µM): 0.454
relative viability (AZD1208 + Trametinib; first compound 2.53 µM): 0.381
relative viability (AZD1208 + Trametinib; first compound 8 µM): 0.313
